Test results: ChEMBL document CHEMBL1201862, “PubChem BioAssay data set” (2004)
Active and inactive are the calls of the source.

Key:
[1] = molecular target: T1, Low molecular weight phosphotyrosine protein phosphatase (Homo sapiens, UniProt P24666); assay type: functional; conditions: read-out: IC50_Mean;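 also: Dose-response confirmation assay measuring inhibition of LMPTP enzyme activity by fluorescence intensity read-out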
T1 sequence (P24666 whole entry): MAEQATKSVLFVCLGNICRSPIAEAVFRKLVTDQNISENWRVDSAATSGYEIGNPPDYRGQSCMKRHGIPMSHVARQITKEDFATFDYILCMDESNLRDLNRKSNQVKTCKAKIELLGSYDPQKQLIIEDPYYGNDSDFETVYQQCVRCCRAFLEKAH

[2] = molecular target: DNA (cytosine-5)-methyltransferase 1 (Homo sapiens, UniProt P26358); test: inhibition of DNA methylation by DNMT1 – biochemical, fluorescent molecular beacon, confirmation (AID 602386); assay type: functional
[3] = molecular target: T2, Adenosylmethionine-8-amino-7-oxononanoate aminotransferase (Mycobacterium tuberculosis, UniProt P9WQ81); test: Mycobacterium tuberculosis BioA enzyme inhibitor Measured in Biochemical System Using Plate Reader - 2163-02_Inhibitor_Dose_CherryPick_Activity.; assay type: functional, Mycobacterium tuberculosis UT205
T2 sequence (P9WQ81 whole entry): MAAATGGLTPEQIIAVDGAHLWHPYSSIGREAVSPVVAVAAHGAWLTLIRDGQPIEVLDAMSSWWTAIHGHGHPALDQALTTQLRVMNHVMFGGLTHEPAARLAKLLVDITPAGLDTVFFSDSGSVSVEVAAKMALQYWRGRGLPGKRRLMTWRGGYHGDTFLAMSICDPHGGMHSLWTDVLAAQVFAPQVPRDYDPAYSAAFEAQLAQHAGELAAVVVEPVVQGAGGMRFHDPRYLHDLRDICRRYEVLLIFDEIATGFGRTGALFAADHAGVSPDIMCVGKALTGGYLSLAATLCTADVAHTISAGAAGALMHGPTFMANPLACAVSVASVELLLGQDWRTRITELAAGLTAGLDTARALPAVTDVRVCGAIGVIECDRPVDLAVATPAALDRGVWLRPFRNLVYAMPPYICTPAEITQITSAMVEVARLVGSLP

[4] = molecular target: T3, Sentrin-specific protease 7 (Homo sapiens, UniProt Q9BQF6); assay type: functional;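 also: Luminescence-based dose-response confirmation of ultra-high-throughput screening hits, measuring inhibition of SENP7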
T3 sequence (Q9BQF6 whole entry): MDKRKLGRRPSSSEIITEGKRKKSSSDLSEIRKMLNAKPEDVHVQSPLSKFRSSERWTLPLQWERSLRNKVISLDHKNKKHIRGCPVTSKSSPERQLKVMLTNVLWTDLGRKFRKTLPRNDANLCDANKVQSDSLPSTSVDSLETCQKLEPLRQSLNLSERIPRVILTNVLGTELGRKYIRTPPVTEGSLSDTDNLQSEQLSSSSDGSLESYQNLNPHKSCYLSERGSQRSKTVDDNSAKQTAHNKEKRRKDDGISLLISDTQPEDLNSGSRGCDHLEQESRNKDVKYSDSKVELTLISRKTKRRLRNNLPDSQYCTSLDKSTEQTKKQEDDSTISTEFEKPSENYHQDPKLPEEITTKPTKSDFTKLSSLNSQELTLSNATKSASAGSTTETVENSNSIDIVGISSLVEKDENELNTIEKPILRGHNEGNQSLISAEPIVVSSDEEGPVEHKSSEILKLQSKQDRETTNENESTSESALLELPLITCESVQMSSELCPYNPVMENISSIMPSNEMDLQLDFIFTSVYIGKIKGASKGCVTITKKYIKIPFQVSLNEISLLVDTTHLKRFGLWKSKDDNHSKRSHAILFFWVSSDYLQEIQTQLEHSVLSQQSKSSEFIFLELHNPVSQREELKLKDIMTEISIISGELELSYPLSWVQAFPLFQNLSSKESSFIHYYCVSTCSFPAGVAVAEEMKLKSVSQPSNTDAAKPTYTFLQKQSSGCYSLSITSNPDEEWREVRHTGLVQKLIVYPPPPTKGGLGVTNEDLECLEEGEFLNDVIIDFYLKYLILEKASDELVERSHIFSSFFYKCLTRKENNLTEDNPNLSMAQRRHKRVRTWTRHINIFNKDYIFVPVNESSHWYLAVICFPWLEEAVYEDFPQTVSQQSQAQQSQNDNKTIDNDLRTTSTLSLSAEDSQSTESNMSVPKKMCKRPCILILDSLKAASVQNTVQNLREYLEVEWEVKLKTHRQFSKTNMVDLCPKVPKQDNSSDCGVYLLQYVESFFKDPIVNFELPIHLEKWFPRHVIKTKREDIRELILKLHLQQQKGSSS

[5] = molecular target: T4, Sentrin-specific protease 8 (Homo sapiens, UniProt Q96LD8); assay type: functional;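 also: luminescence read-out of SENP8 inhibition, dose-response confirmation following an ultra-high-throughput screen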
T4 sequence (Q96LD8 whole entry): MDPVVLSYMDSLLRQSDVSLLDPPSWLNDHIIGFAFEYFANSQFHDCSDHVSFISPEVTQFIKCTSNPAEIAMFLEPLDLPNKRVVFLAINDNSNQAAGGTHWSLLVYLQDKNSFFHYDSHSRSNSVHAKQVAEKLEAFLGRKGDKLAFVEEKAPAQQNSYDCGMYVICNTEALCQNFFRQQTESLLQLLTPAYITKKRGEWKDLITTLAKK

Caspase-3 = molecular target: T5, Caspase-3 (Homo sapiens, UniProt P42574); assay type: functional;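 also: Dose-response selectivity test against caspase-3 for candidate inhibitors of sentrin-specific proteases (SENPs)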
T5 sequence (P42574 whole entry): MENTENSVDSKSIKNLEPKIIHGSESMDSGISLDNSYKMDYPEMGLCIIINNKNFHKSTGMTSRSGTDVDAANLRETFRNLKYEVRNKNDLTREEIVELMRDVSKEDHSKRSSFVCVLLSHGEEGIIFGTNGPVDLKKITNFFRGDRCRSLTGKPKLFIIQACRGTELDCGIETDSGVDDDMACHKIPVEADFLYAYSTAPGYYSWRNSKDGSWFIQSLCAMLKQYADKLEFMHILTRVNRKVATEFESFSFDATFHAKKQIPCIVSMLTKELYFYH

[6] = molecular target: T6, Sentrin-specific protease 6 (Homo sapiens, UniProt Q9GZR1); assay type: functional;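 also: Luminescence-based dose-response confirmatory assay of SENP6 inhibition, following up an ultra-high-throughput screen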
T6 sequence (Q9GZR1 whole entry): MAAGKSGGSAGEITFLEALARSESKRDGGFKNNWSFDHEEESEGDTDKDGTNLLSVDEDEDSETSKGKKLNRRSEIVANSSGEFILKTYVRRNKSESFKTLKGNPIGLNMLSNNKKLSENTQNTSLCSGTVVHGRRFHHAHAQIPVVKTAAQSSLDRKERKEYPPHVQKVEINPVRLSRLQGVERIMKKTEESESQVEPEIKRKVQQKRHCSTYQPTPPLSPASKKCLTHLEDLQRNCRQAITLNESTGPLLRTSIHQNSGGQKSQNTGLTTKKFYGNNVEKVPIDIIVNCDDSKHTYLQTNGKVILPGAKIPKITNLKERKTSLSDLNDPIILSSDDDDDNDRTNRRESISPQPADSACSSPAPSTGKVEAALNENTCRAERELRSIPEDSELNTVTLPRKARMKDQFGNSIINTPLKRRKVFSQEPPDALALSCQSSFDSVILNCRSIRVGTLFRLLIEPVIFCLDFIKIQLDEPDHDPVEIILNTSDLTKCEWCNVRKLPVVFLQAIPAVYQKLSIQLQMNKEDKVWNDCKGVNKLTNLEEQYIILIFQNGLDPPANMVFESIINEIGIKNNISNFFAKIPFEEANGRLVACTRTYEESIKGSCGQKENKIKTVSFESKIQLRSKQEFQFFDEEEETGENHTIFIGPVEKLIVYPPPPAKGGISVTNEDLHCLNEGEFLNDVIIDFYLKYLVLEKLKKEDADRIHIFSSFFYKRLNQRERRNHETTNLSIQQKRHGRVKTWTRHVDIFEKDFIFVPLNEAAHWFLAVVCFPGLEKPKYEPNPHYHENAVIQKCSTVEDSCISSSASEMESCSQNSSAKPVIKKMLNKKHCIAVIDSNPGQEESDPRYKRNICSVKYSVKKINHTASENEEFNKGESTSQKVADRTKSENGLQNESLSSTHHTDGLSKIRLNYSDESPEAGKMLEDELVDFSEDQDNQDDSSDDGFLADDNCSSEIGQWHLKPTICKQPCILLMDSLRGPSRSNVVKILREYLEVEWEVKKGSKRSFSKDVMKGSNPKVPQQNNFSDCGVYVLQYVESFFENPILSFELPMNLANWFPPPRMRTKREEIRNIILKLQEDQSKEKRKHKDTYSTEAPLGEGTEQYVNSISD

[7] = molecular target: T7, Long-chain-fatty-acid--AMP ligase FadD28 (Mycobacterium tuberculosis, UniProt P9WQ59); test: Fluorescence polarization aasay to screen for inhibitors that compete for the binding of FadD28 to a bisubstrate Measured in Biochemical System Using Plate Reader - 2147-01_Inhibitor_Dose_CherryPick_Activity.; assay type: functional, Mycobacterium tuberculosis H37Rv
T7 sequence (P9WQ59 whole entry): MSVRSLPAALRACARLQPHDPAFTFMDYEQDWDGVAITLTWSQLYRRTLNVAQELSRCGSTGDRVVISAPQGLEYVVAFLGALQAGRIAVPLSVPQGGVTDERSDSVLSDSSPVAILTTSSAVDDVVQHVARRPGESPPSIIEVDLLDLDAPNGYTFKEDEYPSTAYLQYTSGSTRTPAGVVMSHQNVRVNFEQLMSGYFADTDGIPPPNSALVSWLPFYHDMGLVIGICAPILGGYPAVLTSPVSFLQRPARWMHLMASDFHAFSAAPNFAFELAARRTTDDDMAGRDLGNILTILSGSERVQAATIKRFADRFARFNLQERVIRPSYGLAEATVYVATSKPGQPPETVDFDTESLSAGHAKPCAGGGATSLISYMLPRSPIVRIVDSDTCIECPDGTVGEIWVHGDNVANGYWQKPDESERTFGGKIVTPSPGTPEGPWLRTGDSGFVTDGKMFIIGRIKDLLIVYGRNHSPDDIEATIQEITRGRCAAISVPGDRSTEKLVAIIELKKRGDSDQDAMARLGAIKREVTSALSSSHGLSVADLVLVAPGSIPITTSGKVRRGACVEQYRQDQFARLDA

[8] = molecular target: T8, Carboxy-terminal domain RNA polymerase II polypeptide A small phosphatase 1 (Homo sapiens, UniProt Q9GZU7); test: CTDSP1 inhibitors, concentration-response, biochemical, absorbance readout, ultra-high-throughput screen actives (AID 540297); assay type: functional
T8 sequence (Q9GZU7 whole entry): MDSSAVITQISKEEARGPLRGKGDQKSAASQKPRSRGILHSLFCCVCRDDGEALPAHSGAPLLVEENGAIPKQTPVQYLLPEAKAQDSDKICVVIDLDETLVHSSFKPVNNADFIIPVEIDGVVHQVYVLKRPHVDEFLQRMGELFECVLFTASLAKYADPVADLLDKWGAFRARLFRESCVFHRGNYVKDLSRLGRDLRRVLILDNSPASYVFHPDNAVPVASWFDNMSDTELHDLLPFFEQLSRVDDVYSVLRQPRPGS

[9] = molecular target: 26S proteasome non-ATPase regulatory subunit 14 (Homo sapiens, UniProt O00487); test: inhibition of proteasome subunit RPN11 – biochemical, fluorescence polarization, uHTS hits, confirmation (AID 602368); assay type: functional
Prothrombin = Prothrombin (Bos taurus, UniProt P00735); test: thrombin protease inhibitors – biochemical, fluorescence polarization, uHTS hits, dose response (AID 602369); assay type: functional
[10] = molecular target: 72 kDa type IV collagenase (Homo sapiens, UniProt P08253); test: Dose Response validation of uHTS RPN11 inhibitor hits using a MMP-2 Fluorescence assay.; assay type: functional
[11] = Trypanosoma cruzi growth suppression in host cells – NIH3T3 host cells, beta-gal luminescence, confirmation (AID 2044); assay type: functional, cell-based;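 also: intracellular parasites grown in NIH/3T3 mouse fibroblasts as host cells; luminescent beta-galactosidase reporter signal from transgenic T. cruzi replicating inside host cells; inhibitors lower the luminescence signal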
[12] = NIH3T3 cell viability loss – ATP luminescence, mouse fibroblasts, counter-screen, dose response (AID 2010); assay type: functional, cell-based;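 also: cells exposed to compound for about 90 hours before reading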
Beta Lactamase = Beta Lactamase (Pseudomonas aeruginosa, UniProt Q932Y6); test: BLA reporter interference, concentration series – BLA reporter cells, FRET fluorescence, artefact control for NOD2-RIPK2 interaction inhibitor project, dose response (AID 651552); assay type: functional, cell-based
[13] = Fluorescence-based cell-based high throughput dose response assay for inhibitors of the interaction of nucleotide-binding oligomerization domain containing 2 (NOD2) and the receptor-interacting serine-threonine kinase 2 (RIPK2).; assay type: functional; conditions: Homo sapiens

Sequence of 26S proteasome non-ATPase regulatory subunit 14 (O00487 whole entry): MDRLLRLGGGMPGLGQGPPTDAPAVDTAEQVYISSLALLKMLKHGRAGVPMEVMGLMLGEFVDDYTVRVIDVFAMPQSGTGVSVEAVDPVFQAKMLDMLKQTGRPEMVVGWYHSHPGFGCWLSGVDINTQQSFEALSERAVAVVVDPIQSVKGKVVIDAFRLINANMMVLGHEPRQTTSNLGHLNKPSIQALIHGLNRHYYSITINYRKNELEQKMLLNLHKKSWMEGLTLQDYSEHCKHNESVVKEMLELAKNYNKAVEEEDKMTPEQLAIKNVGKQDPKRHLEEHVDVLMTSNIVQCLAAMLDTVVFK
Sequence of 72 kDa type IV collagenase (P08253 whole entry): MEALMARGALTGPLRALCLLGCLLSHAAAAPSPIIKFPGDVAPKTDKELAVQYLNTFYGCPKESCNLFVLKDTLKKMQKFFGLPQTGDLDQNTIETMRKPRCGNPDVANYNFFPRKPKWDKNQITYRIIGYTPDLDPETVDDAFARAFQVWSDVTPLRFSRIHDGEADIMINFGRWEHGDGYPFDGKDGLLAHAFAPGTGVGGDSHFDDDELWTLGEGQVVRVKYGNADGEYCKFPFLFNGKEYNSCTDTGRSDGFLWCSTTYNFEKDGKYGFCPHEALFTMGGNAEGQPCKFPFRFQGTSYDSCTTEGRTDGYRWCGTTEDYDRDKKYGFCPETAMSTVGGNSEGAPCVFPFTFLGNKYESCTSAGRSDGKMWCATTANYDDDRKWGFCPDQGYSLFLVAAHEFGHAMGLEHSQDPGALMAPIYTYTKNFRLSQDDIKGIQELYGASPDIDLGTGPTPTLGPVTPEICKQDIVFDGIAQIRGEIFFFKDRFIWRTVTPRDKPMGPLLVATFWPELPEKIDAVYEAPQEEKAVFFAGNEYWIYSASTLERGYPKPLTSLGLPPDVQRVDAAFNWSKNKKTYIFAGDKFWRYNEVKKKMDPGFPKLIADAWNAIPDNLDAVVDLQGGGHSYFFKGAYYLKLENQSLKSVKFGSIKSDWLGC
Sequence of DNA (cytosine-5)-methyltransferase 1 (P26358 whole entry): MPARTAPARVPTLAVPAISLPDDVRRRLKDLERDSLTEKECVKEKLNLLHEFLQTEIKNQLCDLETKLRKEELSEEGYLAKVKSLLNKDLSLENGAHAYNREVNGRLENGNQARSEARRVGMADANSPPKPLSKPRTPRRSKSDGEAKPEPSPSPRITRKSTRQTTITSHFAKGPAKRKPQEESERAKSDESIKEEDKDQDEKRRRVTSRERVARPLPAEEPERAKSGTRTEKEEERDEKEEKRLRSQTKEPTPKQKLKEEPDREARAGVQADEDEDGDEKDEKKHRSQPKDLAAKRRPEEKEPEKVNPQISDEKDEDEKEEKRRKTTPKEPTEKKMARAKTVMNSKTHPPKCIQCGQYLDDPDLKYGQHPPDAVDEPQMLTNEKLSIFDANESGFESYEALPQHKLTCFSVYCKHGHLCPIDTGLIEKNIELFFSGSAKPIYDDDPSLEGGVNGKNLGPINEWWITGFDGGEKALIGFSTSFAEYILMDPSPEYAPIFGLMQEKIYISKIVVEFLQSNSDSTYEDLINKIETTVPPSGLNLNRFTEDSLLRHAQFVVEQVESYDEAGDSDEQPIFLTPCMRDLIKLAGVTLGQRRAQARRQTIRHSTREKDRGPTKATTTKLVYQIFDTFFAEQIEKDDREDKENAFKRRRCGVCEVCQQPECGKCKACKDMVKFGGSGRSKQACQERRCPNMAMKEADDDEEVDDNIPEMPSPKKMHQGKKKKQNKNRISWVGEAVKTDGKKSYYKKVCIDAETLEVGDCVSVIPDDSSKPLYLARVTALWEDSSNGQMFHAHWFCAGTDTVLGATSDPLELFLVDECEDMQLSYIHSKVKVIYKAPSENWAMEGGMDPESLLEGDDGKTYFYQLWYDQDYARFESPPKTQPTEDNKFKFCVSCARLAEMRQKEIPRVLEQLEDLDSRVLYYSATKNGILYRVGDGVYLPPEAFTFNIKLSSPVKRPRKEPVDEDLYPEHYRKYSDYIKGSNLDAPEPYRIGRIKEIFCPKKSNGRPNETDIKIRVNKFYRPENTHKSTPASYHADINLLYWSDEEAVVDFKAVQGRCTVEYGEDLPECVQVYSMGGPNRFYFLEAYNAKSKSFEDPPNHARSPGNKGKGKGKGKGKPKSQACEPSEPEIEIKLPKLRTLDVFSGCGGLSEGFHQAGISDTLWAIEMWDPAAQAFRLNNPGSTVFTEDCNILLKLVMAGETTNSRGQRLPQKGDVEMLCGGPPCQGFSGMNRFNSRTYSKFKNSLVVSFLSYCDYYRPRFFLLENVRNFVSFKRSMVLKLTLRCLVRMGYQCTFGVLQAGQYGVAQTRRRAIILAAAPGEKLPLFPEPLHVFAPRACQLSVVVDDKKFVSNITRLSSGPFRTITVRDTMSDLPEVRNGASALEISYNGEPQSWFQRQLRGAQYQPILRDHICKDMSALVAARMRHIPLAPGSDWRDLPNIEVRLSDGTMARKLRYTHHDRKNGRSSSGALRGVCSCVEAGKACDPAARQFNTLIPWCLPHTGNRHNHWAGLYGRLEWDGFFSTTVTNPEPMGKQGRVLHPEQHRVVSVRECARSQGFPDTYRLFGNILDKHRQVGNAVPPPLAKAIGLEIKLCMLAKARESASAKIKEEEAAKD
Sequence of Beta Lactamase (Q932Y6 whole entry, the tested form may be a part): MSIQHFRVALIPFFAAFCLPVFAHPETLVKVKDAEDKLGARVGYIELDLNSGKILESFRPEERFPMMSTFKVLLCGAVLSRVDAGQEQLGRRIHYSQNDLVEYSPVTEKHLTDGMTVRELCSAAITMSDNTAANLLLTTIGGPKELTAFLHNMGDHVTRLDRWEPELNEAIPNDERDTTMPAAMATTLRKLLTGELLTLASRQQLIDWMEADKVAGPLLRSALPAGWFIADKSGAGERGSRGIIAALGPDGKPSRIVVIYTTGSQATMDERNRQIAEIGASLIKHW

N=C(N)NCCCS(=O)(=O)Nc1ccc(Nc2c3ccccc3nc3cc([N+](=O)[O-])ccc23)cc1
IC50 [1]: 57 µM (inactive)
IC50 [2]: 6.83 µM (active)

O=C(Nc1ncc2c(n1)CC(c1ccccc1)CC2=O)c1ccco1 (stereo not given)
AC50 [3]: 0.201 µM (active)

O=C(Nc1ccc(Cl)c(-c2nc3ccccc3[nH]2)c1)c1cccnc1
AC50 [3]: 0.788 µM (active)

COc1cc(-c2nnc(S)n2-c2cccc(C(F)(F)F)c2)cc(OC)c1OC
AC50 [3]: 10.6 µM (active)

O=[N+]([O-])c1ccc(N/N=N/c2ccccc2)cc1
IC50 [4]: 9.64 µM (active)
IC50 [5]: 75.3 µM (active)
IC50 (Caspase-3): 45 µM (active)
IC50 [6]: 46.5 µM (active)

O=C(O)C(c1ccccc1)N1C(=O)/C(=C\c2ccc(-c3ccccc3Cl)o2)SC1=S (stereo not given)
AC50 [7]: 15.6 µM (active)
IC50 [2]: 4.27 µM (active)

CCOC(=O)c1ccc(Nc2cnc3ccccc3n2)cc1
IC50 [4]: 6.72 µM (active)
IC50 [5]: > 100 µM (inactive)
IC50 (Caspase-3): 64.6 µM (active)
IC50 [6]: > 100 µM (inactive)

O=C(NCc1cccc(CNC(=O)C(=O)NCc2ccco2)c1)C(=O)NCc1ccco1
IC50 [1]: 6.32 µM (active)
IC50 [8]: > 80 µM (inactive)

Cc1ccsc1/C=N/n1c(S)nnc1-c1cc(-c2ccccc2)[nH]n1
IC50 [9]: 21.1 µM (active)
IC50 (Prothrombin): 77.2 µM (active)
IC50 [10]: > 100 µM (inactive)

C=CCn1cc(/C=N/NC(=O)COc2cccc3cccnc23)c2ccccc21
IC50 [9]: 27.8 µM (active)
IC50 (Prothrombin): 39 µM (active)
IC50 [10]: > 100 µM (inactive)

C/N=c1\scc(-c2cc(OC)ccc2OC)n1/N=C/c1c(C)[nH]c2ccccc12
EC50 [11]: 1.64 µM (active)
IC50 [9]: 23.8 µM (active)
EC50 [12]: > 60 µM (not active)
IC50 (Prothrombin): 21.1 µM (active)
IC50 [10]: > 100 µM (inactive)

O=C(CN1CCN(S(=O)(=O)c2ccc(Br)cc2)CC1)N/N=C/c1ccc(Cl)c([N+](=O)[O-])c1
IC50 (Beta Lactamase): 48.7 µM (inactive)
IC50 [13]: 1.83 µM (active)
